Test results from patent US20170360761A1, “Selective Inhibition of HDAC6 and HDAC8, and Methods of Use Thereof” (Reaction Biology Corp., priority 2016, published 2017).

How the values were obtained:
Assay type in all cases: cell-based
[1] = system: RPMI-8226 cells; test: MTS cell viability assay, RPMI-8226 cells; conditions: Homo sapiens, 72 hours incubation
Method: (§1) About 2000-5000 of U266 cells, REH cells, K562 cells, KMS-11 cells, RPMI-8226 cells and MM. 1S cells were incubated with RBC-2008 in 384 well assay plates at 37° C., 5% CO2 for 72 hours. An amount of 5 μl of CellTiter 96® AQueous One Solution Reagent (MTS assay reagent) from Promega was added to each well and incubated for 3 hours. Absorbance at 492 nm was recorded by Envision Multilabel Reader. The IC50 curves were plotted and the IC50 values were calculated using the GraphPad Prism 4 program based on sigmoidal dose-response equation. […] 1S cells respectively (FIG. 8).

[2] = system: U266 cells; test: MTS cell viability assay, U266 cells; conditions: Homo sapiens, U-266, 72 hours incubation
Method: as §1

[3] = system: MM. 1S cells; test: MTS cell viability assay, MM. 1S cells; conditions: Homo sapiens, MM1.S, 72 hours incubation
Method: as §1

[4] = system: KMS-11 cells; test: MTS cell viability assay, KMS-11 cells; conditions: Homo sapiens, 72 hours incubation
Method: as §1

[5] = system: K562 cells; test: MTS cell viability assay, K562 cells; conditions: Homo sapiens, 72 hours incubation
Method: The effects of RBC-2008 on the viability of human tumor cell were assessed in an MTS assay. K562 cells were incubated with RBC-2008 in 384 well assay plates at 37° C., 5% CO2 for 72 hours. 5 μl of CellTiter 96® AQueous One Solution Reagent (MTS assay reagent) from Promega was added to each well and incubated for 3 hours. Absorbance at 492 nm was recorded using an Envision Multilabel Reader. The IC50 curves were plotted and the IC50 values were calculated using the GraphPad Prism 4 program based on a sigmoidal dose-response equation (FIG. 5).
as §1

[6] = system: REH cells; test: MTS cell viability assay, REH cells; conditions: Homo sapiens, 72 hours incubation
Method: as §1

Which IC50 [1] does the source give for `O=C(NO)c1ccc(Cn2sc3ccccc3c2=O)cc1` [RBC-2008] here?
Its IC50 is 3.8 µM.

What about the IC50 [2] of the same compound?
Its IC50 is 14.5 µM.

And the IC50 [3]?
Its IC50 is 2.1 µM.

And the IC50 [4]?
Its IC50 is 2.5 µM.

What about the IC50 [5] of the same compound?
The IC50 was 13.1 µM.

What about the IC50 [6] of the same compound?
The IC50 was 1.8 µM.
